Key:
calmodulin = calmodulin (Homo sapiens, UniProt P0DP23); test: Competition with SEQ ID NO 176 peptide binding to calmodulin; details: FIG. 20, FIG. 23
Excerpt: To examine where the SEQ ID NO 176 peptide bound the CaM molecule, we attempted to block binding with other peptides that have been previously shown to bind to the central, linker region of CaM (See Persechini and Kretsinger, 1988, J. Cardiovasc. Pharmacol 12:S1-12; Ikura et al., 1992, Cell Calcium 13:391-400; Chapman et al., 1992, Biochemistry 31:12819-25; Meador et al., 1992, Science 257: 1251-1255). It is this region of CaM that binds various proteins to regulate their activity in a Ca^2+ -dependent manner.
If the site responsible for binding of the CaM specific TSARs to CaM were only a five or six residue peptide, then one would have expected to isolate about 10-20 CaM binding TSARs from the TSAR-12 library. However, since only one particular CaM binding TSAR was repeatedly isolated, it appears that the site of interaction between the CaM specific TSAR and CaM is complex, i.e., the site requires more than simply 5 or 6 residues. To illustrate regions of the SEQ ID NO 176 that are involved in binding to CaM, the ability of 4 modified peptides to compete with SEQ ID NO 176 binding for calmodulin were examined. The modified peptides were (a) the N-terminal 13 residues […] SEQ ID NO 185; (b) the C-terminal 13 residues […] SEQ ID NO 186; (c) the SEQ ID NO 176 peptide where, at position 4, W was changed to A--[…] SEQ ID NO. 184; and (d) a peptide having the reverse sequence […] SEQ ID NO. […]

parvalbumin = test: CaM-12.1 phage binding to wells coated with parvalbumin; details: ELISA plate wells
Method: (§1) The binding properties of the CaM-12.1 TSAR were further examined in several ways. First, the ability of CaM-12.1 phage to bind other calcium-binding proteins was tested. […] Second, the ability of natural calmodulin binding peptides and proteins to compete for binding of the CaM-12.1 phage with CaM was tested. […] Third, the ability of a synthetic non-peptide CaM-antagonist, W7, (#681629; Calbiochem, San Diego, Calif.), was tested for its ability to compete for binding of CaM-12.1 to CaM. […] In summary: (1) CaM-12.1 binds CaM specifically, and not because it is a high-affinity Ca^2 +-binding protein; (2) CaM-12.1 binds CaM at a site partially overlapping or influenced, by the binding sites of CaM-dependentprotein kinase peptide, melittin and W7.

[1] = system: vitamin D calcium-binding protein; test: CaM-12.1 phage binding to wells coated with vitamin D calcium-binding protein; details: ELISA plate wells
Method: as §1

calcineurin = test: CaM-12.1 phage binding to calcineurin
Method: as §1

binding to parvalbumin (parvalbumin) | binding to vitamin D calcium-binding protein [1] | binding to calcineurin (calcineurin) | Substance | competition with binding of peptide SEQ ID NO 176 to CaM (calmodulin)
 |  |  | STVPRAIEDSLRGGAARAQTRLASWK [SEQ ID NO. 184] | none of the four peptides were able to compete
failed to bind | failed to bind | did not bind | VPRWIEDSLRGGAARAQTRLASA [CaM-12.1] | 
 |  |  | GAARAQTRLASWK [SEQ ID NO 186, C-terminal 13 residues] | none of the four peptides were able to compete
